Legend:
[1] = target: Proto-oncogene tyrosine-protein kinase Src (Homo sapiens, UniProt P12931); experiment: Competitive Binding Assay; conditions: pH 7.4; 22 °C
Procedure: (§1) Fluorescence polarization competitive binding assays were used to measure the IC50s of compounds binding to the different SH2 domains. The difference in polarization values of fluorescein-conjugated peptide reflects the bound and unbound state of the probe. IC50s were calculated based on the binding of the fluorescein-conjugated peptide to the protein with compound addition relative to vehicle-alone control samples.

[2] = target: T1, Tyrosine-protein kinase ZAP-70 (Homo sapiens, UniProt P43403); experiment: Competitive Binding Assay; conditions: pH 7.4; 22 °C
T1 sequence (P43403 whole entry): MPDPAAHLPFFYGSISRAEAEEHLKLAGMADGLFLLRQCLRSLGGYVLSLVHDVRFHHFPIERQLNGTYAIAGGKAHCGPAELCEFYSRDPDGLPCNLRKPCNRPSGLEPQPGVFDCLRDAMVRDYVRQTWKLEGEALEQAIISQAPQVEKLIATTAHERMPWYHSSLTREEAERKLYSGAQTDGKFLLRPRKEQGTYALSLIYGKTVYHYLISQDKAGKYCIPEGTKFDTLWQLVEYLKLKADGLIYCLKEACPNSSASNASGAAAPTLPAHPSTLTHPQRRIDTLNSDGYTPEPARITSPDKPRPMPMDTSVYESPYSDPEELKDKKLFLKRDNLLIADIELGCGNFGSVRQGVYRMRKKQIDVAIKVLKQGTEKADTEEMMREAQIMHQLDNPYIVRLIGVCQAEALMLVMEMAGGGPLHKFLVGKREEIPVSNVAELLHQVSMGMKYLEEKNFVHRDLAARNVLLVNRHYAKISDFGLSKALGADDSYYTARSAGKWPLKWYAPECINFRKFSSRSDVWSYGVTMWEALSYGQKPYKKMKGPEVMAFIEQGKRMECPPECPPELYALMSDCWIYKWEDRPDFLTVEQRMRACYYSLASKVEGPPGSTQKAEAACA
Procedure: as §1

Proto-oncogene tyrosine-protein kinase Src, sequence (P12931 2-536 limits assumed): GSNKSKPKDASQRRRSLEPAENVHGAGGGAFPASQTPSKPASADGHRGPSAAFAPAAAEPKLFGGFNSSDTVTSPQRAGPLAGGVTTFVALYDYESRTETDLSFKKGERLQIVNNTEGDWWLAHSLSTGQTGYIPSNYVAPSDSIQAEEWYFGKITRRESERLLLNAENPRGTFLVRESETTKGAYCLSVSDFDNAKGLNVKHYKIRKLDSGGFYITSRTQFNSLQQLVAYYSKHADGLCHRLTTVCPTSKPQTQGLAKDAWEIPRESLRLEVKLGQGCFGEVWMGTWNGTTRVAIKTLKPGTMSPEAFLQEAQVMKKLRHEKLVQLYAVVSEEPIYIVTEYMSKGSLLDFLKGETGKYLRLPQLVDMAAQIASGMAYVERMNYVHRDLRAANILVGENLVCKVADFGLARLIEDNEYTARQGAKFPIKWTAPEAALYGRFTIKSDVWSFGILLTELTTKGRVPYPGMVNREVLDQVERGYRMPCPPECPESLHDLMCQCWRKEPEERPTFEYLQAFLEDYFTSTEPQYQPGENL

CC(=O)N[C@@H](Cc1ccc(OP(=O)(O)O)cc1)C(=O)N[C@@H](CCC(N)=O)c1nc(Cc2c(C)cc(C)cc2C)no1 [4-[(2S)-2-{[(1S)-3-carbamoyl-1-{3-[(2,4,6-trimethylphenyl)methyl]-1,2,4-oxadiazol-5-yl}propyl]carbamoyl}-2-acetamidoethyl]phenoxyphosphonic acid]
IC50 [1]: 312 µM
IC50 [2]: > 500 µM

Reference: BindingDB's records for doi:10.1021/jm990229t (Ariad Pharmaceuticals, 1999)
